Measurements from ChEMBL document CHEMBL1121613.

Biological target: Adrenergic receptor alpha (Homo sapiens) (UniProt P35348+P08913+P18825+P25100+P35368+P18089)
Assay: Blocking activity towards Alpha adrenergic receptor of rabbit aortic tissue preparation was determined
Settings: Oryctolagus cuniculus; target entry is the homologue from another species

SMILES | -Log KB
C[C@@H]1CN=C(Nc2c(Cl)cccc2Cl)N1 | 5.08
c1ccc(CC2NC[C@@H](Cc3ccccc3)N2)cc1 (stereo partly drawn) | 4.98
c1ccc(C[C@H]2CN=C(Cc3cccc4ccccc34)N2)cc1 | 6.57
c1ccc(CC2NC[C@H](Cc3ccccc3)N2)cc1 (stereo partly drawn) | 5
C[C@H]1CN=C(Cc2cccc3ccccc23)N1 | 5.76
C[C@H]1CN=C(Nc2c(Cl)cccc2Cl)N1 | 5.27
c1ccc(C[C@@H]2CN=C(Cc3cccc4ccccc34)N2)cc1 | 6.34
C[C@@H]1CN=C(Cc2cccc3ccccc23)N1 | 5.6
